Patent US7964598B2 (The J. David Gladstone Institutes, priority 1995, dated 2011)

Columns and labels:
HepG2 cells = experiment: Cell association of 125I-apoE-enriched β-VLDL by HepG2 cells; type: cell-based, human
B103-neo cells = experiment: Cell association and degradation of 125I-Aβ40 by B103-neo cells; type: cell-based, rat; conditions: 125I-Aβ1-40 350 pg/ml with apoE, 24-h incubation
Procedure: Cell Association and Degradation of ^125I-Aβ40 by Neo-transfected B103 Cells. […] Culture medium was collected after 24 h, and the degradation products of ^125I-Aβ40 in the medium were assayed as described. Goldstein et al al. ((1983) Methods Enzymol. 98:241-250). The cells were washed five times on ice with phosphate-buffered saline (PBS) containing 0.2% bovine serum albumin and once with PBS and lysed by 0.1 N NaOH. The cell-associated ^125I-Aβ40 was determined by counting the radioactivity in the cell lysate.
The cell association and degradation of Aβ were measured after a 24-h incubation, as described in Methods, above.

Neuro-2a cells = experiment: Metabolism of apoE-enriched β-VLDL by Neuro-2a cells; type: cell-based, mouse; conditions: for enhancement of cell association of β-VLDL: 125I-β-VLDL enriched with apoE; for cell association: purified 125I-apoE-enriched β-VLDL; for increase of cellular cholesterol content: β-VLDL enriched with apoE, compared with β-VLDL alone
Procedure: Rabbit β-VLDL (d<1.006 g/ml) were isolated from the plasma of New Zealand White rabbits fed a high-fat, high-cholesterol diet for 4 days. The ratio of cholesterol to protein in this β-VLDL ranged from ˜15 to 20:1. Human apoE-enriched β-VLDL were prepared by incubating apoE with β-VLDL at 37° C. for 1 h. For some experiments, the apoE-enriched β-VLDL were reisolated by fast-performance liquid chromatography as follows. Either ^125I-β-VLDL and unlabeled apoE or ^125I-apoE and unlabeled β-VLDL were mixed in a 1:1.5 ratio of β-VLDL protein to apoE and incubated at 37° C. for 1 h. The mixture (250 μl) was then fractionated by chromatography on a Superose 6 column (Pharmacia Fine Chemicals, Uppsala, Sweden, 10/50 HR). The flow rate was 0.5 ml/min, and 0.5 ml fractions were collected. The elution profile was monitored by quantitation of ^125I and cholesterol.
Cultured cells were grown to ˜100% confluence, washed twice with fresh serum-free medium, and incubated at 37° C. with apoE-enriched β-VLDL. Before addition to the cells, the β-VLDL and apoE were incubated together (5 and 7.5 μg of protein, respectively, unless otherwise indicated) for 1 h at 37° C. Some cells were incubated with 50 μM chloroquine, and inhibitor of lysosomal protease, at 37° C. for 2 h before addition of the apoE-enriched β-VLDL. At the times indicated, the cells were placed on ice, and the medium was assayed for protein degradation products. For the cell association studies, Neuro-2a cells were washed five times on ice with 0.1 M PBS containing 0.2% bovine serum albumin and once with 0.1 M PBS. Cell-associated ligand represents both bound and internalized material. The fibroblasts were washed three times with DMEM-Hepes on ice and incubated with 10 mM suramin at 4° C. for 30 min to remove surface-bound ligand. The radioactivity remaining within the cells represents that which was “internalized.” After washing, the cells were dissolved in 0.1 N NaOH for measurement of radioactivity and protein concentration.
The cells were then washed and solubilized with 0.1 N NaOH, and the cell-associated DiI, which is proportional to the total amount of lipoprotein metabolized (bound, internalized, and degraded), was assayed.

emulsion particles = experiment: Control emulsion binding assays without compounds; conditions: n = 9; no compound
Procedure: Preparation of emulsion particles. Triolein (160 mg) and L-alpha-Phosphatidylcholine (40 mg) are combined and dried under nitrogen. After the addition of 8 mls of buffer (10 mM Tris, 100 mM KCl, 1 mM EDTA, pH 8.0), the mixture is sonicated in a water bath to obtain a heterogeneous mix of emulsion particles. The particles are harvested by ultracentrifugation (TLA 100.2 rotor, 30,000 rpm for 30 minutes) and the subsequent lipid cake is removed by tube slicing and resuspended in 100 μt 20 mM Phosphate Buffer (PB). Triolein and phospholipid content are measured and total emulsion particle concentration is determined.
Radiolabelling Freshly denatured and renatured Apolipoprotein E3 and E4 are radiolabelled using Bolton-Hunter Reagent [^125I] (ICN). Specific Activity is determined using Lowry method and Gamma 8000 counter.
Binding Affinity Assay. […] In glass tubes, 25 μg of protein (with iodinated tracer) was reduced with 1% β-mercaptoethanol. Two hundred and fifty μg of emulsion particles and 2.5 μl of compound (10 mM stock) were added and the final mixture was brought up to 250 μl with 20 mM phosphate buffer (PB). The reaction mixture was then incubated in a 37° C. water bath for 2 hours before being transferred to 1.5 ml ultracentrifuge tubes. Finally, 50 μl of 60% sucrose was mixed with the sample and 400 μl 20 mM PB was carefully layered on top. Using a TLA 100.2 rotor, the tube was spun at 30,000 rpm for 30 minutes and subsequently cut to separate the floating emulsion particle layer from the free protein at the bottom of the tube. These fractions were then combined with the respective half of the actual tube and counted using a Gamma-8000.

| Substance | cell association (HepG2 cells; 4 hours) [ng/mg cell protein] | cell association (HepG2 cells; 8 hours) [ng/mg cell protein] | Cell association of 125I-Aβ1-40 (B103-neo cells) [fmol/mg cell protein] | Degradation of 125I-Aβ1-40 (B103-neo cells) [fmol/mg cell protein] | enhancement of cell association of β-VLDL (Neuro-2a cells) [fold] | cell association (Neuro-2a cells; 2 h) | cell association (Neuro-2a cells; 4 h) | increase of cellular cholesterol content (Neuro-2a cells) [fold] | Mean % bound (emulsion particles) [%] | Mean % free (emulsion particles) [%] | Median % bound (emulsion particles) [%] | Median % free (emulsion particles) [%] | Range % bound (emulsion particles) | Range % free (emulsion particles) |
| --- | --- | --- | --- | --- | --- | --- | --- | --- | --- | --- | --- | --- | --- | --- |
| apoE3: human apolipoprotein E3 isoform, also iodinated | 1062 ± 171 | 1466 ± 38 | 10.8 ± 2.5 | 88.0 ± 6.7 | ~1.7 | 58 ng/mg of cell protein | 101 ng/mg of cell protein | ~1.5 | 29.8 | 70.2 | 33 | 67 | 20-39% | 61-81% |
| apoE4: human apolipoprotein E4 isoform, also iodinated | 51 ± 10 | 683 ± 6 | 14.7 ± 2.5 | 80.8 ± 22.9 | ~1.7 | 39 ng/mg of cell protein | 65 ng/mg of cell protein | ~1.7 | 59.4 | 40.6 | 60 | 40 | – | 30-50% |
